Test results from the CheMixHub drug solubility set.

Experiment: xn = mol fraction of the nth substance listed, in the solute-free solvent

Nc1cccc2ccncc12 + CO + O
solubility (g/100 g solution)
Details	278.15 K	283.15 K	288.15 K	293.15 K	298.15 K	303.15 K	308.15 K	313.15 K	318.15 K	323.15 K
x2 = 0.05881	0.0271	0.0315	0.0363	0.0431	0.0495	0.0576	0.0677	0.079	0.0916	0.107
x2 = 0.1233	0.0301	0.035	0.0406	0.0481	0.0556	0.0648	0.0763	0.0893	0.104	0.122
x2 = 0.1942	0.0368	0.0428	0.0497	0.0588	0.0681	0.0794	0.0937	0.11	0.128	0.15
x2 = 0.2727	0.0479	0.0557	0.0648	0.0762	0.0886	0.103	0.122	0.142	0.167	0.196
x2 = 0.3599	0.0644	0.0748	0.087	0.102	0.119	0.138	0.163	0.19	0.223	0.262
x2 = 0.4576	0.0845	0.0982	0.115	0.134	0.157	0.183	0.216	0.252	0.296	0.349
x2 = 0.5675	0.111	0.128	0.15	0.175	0.205	0.238	0.282	0.329	0.387	0.455
x2 = 0.6923	0.131	0.153	0.179	0.209	0.248	0.289	0.343	0.4	0.473	0.559
x2 = 0.835	0.144	0.167	0.201	0.239	0.286	0.34	0.399	0.461	0.542	0.644

O=C1CCC(C(=O)N2CSCC2C(=O)O)N1 (stereo not given) + CO + CCCCOC(C)=O
solubility (g/100 g solution)
Details	278.15 K	283.15 K	288.15 K	293.15 K	298.15 K	303.15 K	308.15 K	313.15 K	318.15 K	323.15 K
x2 = 0.2871	0.0109	0.0159	0.0239	0.0358	0.0528	0.0759	0.105	0.152	0.213	0.292
x2 = 0.4754	0.017	0.025	0.0349	0.0468	0.0628	0.0977	0.147	0.219	0.325	0.472
x2 = 0.6084	0.0271	0.0398	0.0597	0.0838	0.122	0.155	0.227	0.342	0.501	0.724
x2 = 0.7073	0.0401	0.065	0.104	0.162	0.249	0.378	0.564	0.832	1.2	1.68
x2 = 0.7838	0.0447	0.0729	0.117	0.184	0.287	0.432	0.65	0.964	1.4	1.95
x2 = 0.8446	0.0601	0.0995	0.148	0.234	0.363	0.542	0.949	1.23	1.59	2.33
x2 = 0.8943	0.635	0.752	0.898	0.997	1.19	1.36	1.59	1.88	2.15	2.57
x2 = 0.9355	0.674	0.824	0.969	1.11	1.26	1.5	1.8	2.04	2.4	2.85
x2 = 0.9703	0.793	0.937	1.12	1.28	1.52	1.75	2.06	2.36	2.82	3.31
